Experimental data published in patent US5470714A, “One-step free fatty acid determination method” (Lidak Pharmaceuticals, priority 1993, dated 1995).
Residue numbers refer to the chain shown, from its start. Read-outs that look alike come from different tables or passages of the source.

What was measured:
ADIFAB = target: T1, ADIFAB (Rattus norvegicus, UniProt P02693); assay: Specificity of ADIFAB: effect of potential competitor molecules on ADIFAB fluorescence and on oleic acid binding; details: up to maximum concentrations: lysolecithin 100mM, sphingosine 100mM, bilirubin 50mM, leukotriene C4 32mM, 5-HETE 10mM, prostaglandin D2 5mM; from ethanol 0.1% by volume
T1 construct: acrylodan covalently attached at Lys27 (chemical label, no substitution)
T1 sequence (P02693 1-132): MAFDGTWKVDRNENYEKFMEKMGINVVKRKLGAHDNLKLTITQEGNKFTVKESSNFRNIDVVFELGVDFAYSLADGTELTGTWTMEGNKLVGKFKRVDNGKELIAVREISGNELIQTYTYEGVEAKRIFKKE
Method: ADIFAB is highly specific for long chain FA. […] The interaction between ADIFAB and a variety of molecules that are either formed in association with FA or coexist with FA in plasma and might therefore compete with FA for binding to ADI FAB were examined. The following molecules were investigated up to the maximum concentrations indicated in parenthesis; lysolecithin (100mM), sphingosine (1 00mM), bilirubin (50mM), leukotriene C4 (32mM), (5S)-5- Hydroxy-6,8, 11,14-eicasatetaenoic acid (5-HETE) (10mM), and prostaglandin D2 (5mM). […] (Since these molecules are water insoluble they were added to ADIFAB from ethanol, at 0.1% by volume, which itself causes an Ro increase by about 12% but has no effect on the Kd for oleate binding. )

[1] = target: ADIFAB (Acrylodan derivatized native rat I-FABP, Lys27) (Rattus norvegicus, UniProt P02693); assay: biochemical; assay type: binding; details: for Kd relative to oleate (fold greater than oleate): normalized to oleate
Method: In most of the studies FFA was added to ADIFAB, in a buffer (A) consisting of 10 Mm HEPES, 150 Mm NaCI, 5 mM KCI, and 1 mM NaHPO4 at pH 7.4, as the sodium salt of the fatty acid. […] FA bind to most surfaces and values of the total FA concentration ([FAT]) were corrected for FA binding to cuvette and container walls. This binding was determined using trace amounts of […] labeled FA and, separately, ADIFAB florescence to determine the degree of FA loss upon transfer from one container to another. […] To minimize FA binding to surfaces, the monomer concentrations of stock solutions of the Na salts were maintained at pH >9.0 in water, and were warmed to >37° C. just prior to use. The polyunsaturated forms of the FA are subject to oxidation and it was observed that dissociation constants for binding to ADIFAB (Kd) were considerably greater for the oxidized FA. Care was taken to reduce the exposure of the FA salts to oxygen (all handling was carried out under Argon) and to store them at -20° C.
The concentrations of FA in the aqueous phase (FFA) and FA bound to ADIFAB ([FAb ]) were determined from the ratio of fluorescence emission intensities at 432 and 505 nm (R). The values FFA and [FAb ]were related to the ratio of intensities essentially by the method of Grynkiewicz et. al. (Grynkiewicz, G., Poenie, M., & Tsien, R. Y. (1985) J. Biol. Chem. 260, 3440-3450), according to which:
[FAb ]=[ADIFABtotal ]Q(fr)/(1-fr+FRQ) FR
are the ADIFAB intensities with zero and saturating concentrations of FFA, Ro is the intensity ratio in the absence of FFA and Rmax is the value when ADIFAB is saturated.
Because of the limiting solubility of long chain FA in aqueous solution Rmax and Q cannot. in general, be determined directly. To determine Rmax and Q, ADIFAB was titrated with lauric acid (12:0) whose high CMC allowed maximum R values (~10-11) to be measured that were considerably greater than with longer chain FA. From this titration a linear correlation was found between Q and R. Using Q, R pairs predicted by this relationship, a two parameter (Kd and Rmax) least squares analysis of each FA was done using the equation for equilibrium binding;
1/[FAb ]=(Kd/[ADIFAB])/FFA+1/[ADIFAB] (3)
Optimal Q and Rmax values obtained in this analysis were in the range 17-22 and 10 and 13, respectively, with average values of 19.5 and 11.5. Final Kd values for each FA were then determined by least squares analysis of equation (3) with Q and Rmax fixed at 19.5 and 11.5, respectively.
Fluorescence measurements to monitor Acrylodan fluorescence in various solvents, to monitor adduct formation, and to obtain complete spectra were carried out using an SLM 8000C fluorometer. Measurements of the 505/432 intensity ratios (R values) used to monitor the FFA titrations of ADIFAB were done with either the SLM 8000C or a Perkin-Elmer MPF-2A fluorometer.
ADIFAB dose response to FFA and FFA aggregate formation was measured. The ratio of fluorescent intensities at emission wavelengths of 505/432 nm were measured as a function of added Na salts of several FFA. Resulting data are depicted graphically in FIGS. 6A, 6B and 6C. Conditions were similar to those used in FIG. 3 except that 100mM EGTA was used in obtaining the data depicted in FIGS. 6A and 6B, while the data depicted in FIG. 6C was obtained using 1 mM CaCl2. Measured R values were used to determine FFA and [FFAb]using equations (1) and (2). The solid curves through the data of FIGS. 6A and 6C represent best fits of equation (3) obtained using a non-linear least squares algorithm. Aggregate formation was detected by measuring 90° light scattering from FFA in the buffer of FIG. 3 containing no added calcium and titrated with the Na salts of the FFA as described above, see FIG. 6B. The smoothed curves through the data, intended to guide-the-eye, indicate that aggregate formation, as detected by a sharp increase in light scattering, is approximately coincident with the maximum R value observed in the experiment related to FIG. 6A. […]

[2] = Fluorescence response of fluorescent-FABP probes to fatty acid binding; assay type: biochemical
Source text: Principles and exemplary methods for constructing probes as described and defined herein and methods for determining FFA levels are described in detail below. Using these principles fourteen different fluorescent-FABP derivatives have been constructed. This has been done using 3 different native FABPs (rat intestine (I-FABP), human adipocyte (A-FABP), and human heart (H-FABP)) plus 4 site-specific mutants of two of these (I-FABP, (Thr83Cys83, Thr81Cys81, Lys27Cys27 and H-FABP, Thr27Lys27), and these proteins have been derivatized with 4 different fluorophores (acrylodan, danzyl aziridine, 4-[N-[(2-iodoacetoxy)ethyl]-N-methylamino]-7-nitrobenz-2-oxa1,3-diazole ester (IANBDE), 4-[N-[(2-iodoacetoxy)ethyl]-N-methylamino]-7-nitrobenz-2-oxa-1,3-diazole these derivatives can serve as FFA probes, to some degree. To date, however, ADIFAB remains the one that has optimal properties for current applications. Obviously, by occupying, partially, the binding site with a fluorophore, FA must compete for its site and therefore the FA binding constant for the FABP may be altered from the native protein. This is indeed the case for ADIFAB for which the Kd is about 10 fold greater than for the native protein. So long as FA can bind, however, the derivatized molecule can still function as a FFA probe and so long as the probe's dynamic range is sufficient (as it is for ADIFAB, IANBDE and IANBDA) then FFA levels over a wide range, including those that are physiologic, can be measured.
The Cys27 mutant of I-FABP (Lys27 to Cys27) with acrylodan, IANBDE and IANBDA have also been labeled using the technique described. […] This is the behavior predicted from the construction principles set forth herein, and reflects the shorter tethering arm to Cys27 as compared to Lys27 which prevents the deeper insertion into the binding site that is observed in the Lys27 derivative. […] Thus, those skilled in the art can with considerable confidence predict whether protein modifications and/or choice of label will result in a FFA responsive probe.
Site-directed mutagenesis was used to introduce a cysteine residue at positions 82 or 84, in place of the threonine residues that are normally at this position. Mutagenesis was carried out by annealing a synthetic prirner with a single mismatched base to the above derived expression vector. The primer was extended and ligated in vitro, and the resulting heteroduplex was used to transfect the host strain. The transfected host was screened for the mutated DNA by hybridization with the mutating oligonucleotide. Mutated plasmid DNA was isolated, retransformed into the host strain, and its structure confirmed by sequencing the recombinant DNA in regions defined by probes flanking the mutated region. This modified protein was expressed in the same system and purified by the same methods as for the native protein. Typical yields of purified protein were approximately 50 mg/liter cell culture. The mutated I-FABP protein was fluorescently derivatized by inserting a fluorescent group (which reacts specifically with free SH groups) at the newly created cysteine residue. The cysteine residue was inserted at positions 82 (replacing a threonine residue) and/or at residue 84 (also a threonine residue) since both these positions face outward from the FFA binding pocket but are in close proximity to the tryptophan at position 83 (about 3.5Å lateral separation along the b strand and about 10Å vertical separation between the centers of the tryptophan and fluorescent residues). […] Thus, either the direct emission of the fluorescent group and/or the rate of resonance energy transfer between Trp83 and the fluorescent group was postulated to change. In a non-limiting prior specific example, the dansyl derivative ACRYLODAN®(6-acryloly-2dimethylamenonaphthalene) was used to modify the mutated FABP and this probe was designated FAD508.
ADIFAB dose response to FFA and FFA aggregate formation was measured. […]

[3] = FA-ADIFAB Dissociation Constants, Kd, no added calcium, FIG. 6A, buffer A pH 7.4

CCCCC/C=C\C/C=C\C/C=C\C=C\[C@@H](O)CCCC(=O)O [5-HETE, (5S)-5-Hydroxy-6,8, 11,14-eicasatetaenoic acid]
change in ADIFAB fluorescence by the molecule itself (ADIFAB): none of these molecules, either themselves cause a change in ADIFAB fluorescence
displacement of oleic acid binding to ADIFAB (ADIFAB): nor do they displace oleic acid binding to ADIFAB

CCCCC/C=C\C/C=C\C/C=C\C/C=C\CCCC(=O)O [ARACHIDONATE, arachidonate]
Kd [1, 3]: 1630 ± 30 nM
Kd ([1]; Kd in the presence of calcium, 1 mM calcium): 1670 nM
Kd relative to oleate (fold greater than oleate) [1]: ~5.8 fold

CCCCC/C=C\C/C=C\CCCCCCCC(=O)O [LINOLEATE, linoleate]
Kd [1, 3]: 970 ± 20 nM
Kd relative to oleate (fold greater than oleate) [1]: ~3.5 fold

CC/C=C\C/C=C\C/C=C\CCCCCCCC(=O)O [LINOLENATE, linolenate]
ADIFAB sensitivity to FFA levels (lowest detectable level) [1]: about 20 nM
Kd [1, 3]: 2500 ± 100 nM
Kd relative to oleate (fold greater than oleate) [1]: ~8.9 fold

C=CC1=C(C)/C(=C/c2[nH]c(Cc3[nH]c(/C=C4\NC(=O)C(C)=C4C=C)c(C)c3CCC(=O)O)c(CCC(=O)O)c2C)NC1=O [bilirubin]
change in ADIFAB fluorescence by the molecule itself (ADIFAB): none of these molecules, either themselves cause a change in ADIFAB fluorescence
displacement of oleic acid binding to ADIFAB (ADIFAB): nor do they displace oleic acid binding to ADIFAB

CCCCCCCCCCCC(=O)O [laurate]
Kd ([1]; laurate (12:0), binding detectable but considerably weaker, read-out: Kd (shorter chain FA, bound)): > 200000 nM

CCCCC/C=C\C\C=C/C=C/C=C/[C@@H](SC[C@H](NC(=O)CC[C@H](N)C(=O)O)C(=O)NCC(=O)O)[C@@H](O)CCCC(=O)O [leukotriene C4]
change in ADIFAB fluorescence by the molecule itself (ADIFAB): none of these molecules, either themselves cause a change in ADIFAB fluorescence
displacement of oleic acid binding to ADIFAB (ADIFAB): nor do they displace oleic acid binding to ADIFAB

CCCCC[C@H](O)/C=C/[C@H]1C(=O)C[C@H](O)[C@@H]1C/C=C\CCCC(=O)O [prostaglandin D2]
change in ADIFAB fluorescence by the molecule itself (ADIFAB): none of these molecules, either themselves cause a change in ADIFAB fluorescence
displacement of oleic acid binding to ADIFAB (ADIFAB): nor do they displace oleic acid binding to ADIFAB

CCCCCCCCCCCCC/C=C/[C@@H](O)[C@@H](N)CO [sphingosine]
change in ADIFAB fluorescence by the molecule itself (ADIFAB): none of these molecules, either themselves cause a change in ADIFAB fluorescence
displacement of oleic acid binding to ADIFAB (ADIFAB): nor do they displace oleic acid binding to ADIFAB

lysolecithin
change in ADIFAB fluorescence by the molecule itself (ADIFAB): none of these molecules, either themselves cause a change in ADIFAB fluorescence
displacement of oleic acid binding to ADIFAB (ADIFAB): nor do they displace oleic acid binding to ADIFAB

B1: ADIFAB: Acrylodan derivatized recombinant native protein (I-FABP), labeled at Lys27 (conjugate, UniProt P02693 2-132, looked up)
Fatty acid-binding protein, …: AFDGTWKVDRNENYEKFMEKMGINVVKRKLGAHDNLKLTITQEGNKFTVKESSNFRNIDVVFELGVDFAYSLADGTELTGTWTMEGNKLVGKFKRVDNGKELIAVREISGNELIQTYTYEGVEAKRIFKKE
modifications: acrylodan label at Lys27
Kd of FA relative to the native protein (fold greater) ([2]; ADIFAB versus native I-FABP): about 10 fold
increase in the 505/432 emission ratio on addition of FFA ([2]; FIG. 6A, up to): ≤ 25 fold

B2: IANBDE derivative: Cys27 mutant of I-FABP (Lys27 to Cys27) labeled with IANBDE (conjugate, UniProt P02693 2-132, looked up, variant K27C)
Fatty acid-binding protein, …: B1 Fatty acid-binding protein, … with K27C
modifications: IANBDE (NBD ester) label
responsiveness of the probe to FA binding, in words [2]: among the most sensitive
reduction in intensity at 550 nm ([2]; with 1 mM oleate, I-FABP Cys27 mutant): 60%

B3: Lys27 on I-FABP with danzyl aziridine: Lys27 on I-FABP with danzyl aziridine has been derivatized (conjugate, UniProt P02693 2-132, looked up)
Fatty acid-binding protein, …: B1 Fatty acid-binding protein, …
modifications: dansyl aziridine label at Lys27
notes: Lys27 on I-FABP with danzyl aziridine has been derivatized
responsiveness of the probe to FA binding, in words [2]: exhibits an increase in 450 nm fluorescence upon FA binding
